Earlier results, collected in patent US20010022980A1, “Dietary supplement for individuals under stress” (Beth Israel Deaconess Medical Center, priority 1998, published 2001).

What was measured:
[1] = test system: inflammation; settings: rats
[2] = soldiers, 24 g in a sports bar
[3] = 20 g per day for five days, 3 g daily for remaining 9 weeks; weight training
[4] = test system: PCr; settings: athletes; about 20 g during exercise
[5] = males and females; 20 g per day
[6] = 2 to 5 g per day
[7] = test system: tetanus toxoid; settings: given during 14 days of training (glutamine 14 g)
[8] = test system: explicit memory; settings: college students; 25 grams; 90 minutes after ingestion

Compound: CCCCC/C=C\C/C=C\C/C=C\CCCCC(=O)O [GLA, γ-linoleic acid]
- cellular phase of inflammation (polymorphonuclear leukocyte accumulation, phagocytosis, and lysosomal enzyme activity) [1]: suppressed

Compound: CN(CC(=O)O)C(=N)N.O [creatine monohydrate]
- increase in body mass [2]: 1.5 kg
- increase in total repetitions over five sets of bench presses [2]: 14.4%
- reduction of time to complete an obstacle course ([2]; not significant): 7.6 ± 8.2 s
- decrease in body fat ([2]; p <0.05): 0.6%
- increase in fat free mass [3]: 4.4%
- increase in intracellular water [3]: 3.2%
- increase in total body water [3]: 5%
- strength (bench press and squat exercises) [3]: significant increase

Compound: CN(CC(=O)O)C(=N)N [creatine]
- resynthesis of PCr after exercise [4]: rapid resynthesis
- blood pressure [5]: no change
- body fat [5]: no change
- lean body mass determined by DEXA [5]: increased
- plasma creatine kinase [5]: no change
- muscle creatine content [6]: increases

Compound: NC(=O)CC[C@H](N)C(=O)O [glutamine]
- percentage of soldiers who had an induration >10 mm in response to tetanus toxoid [7]: 50%

Compound: NCC(=O)O [glycine, reference compound]
- percentage of soldiers who had an induration >10 mm in response to tetanus toxoid [7]: 30%

Compound: phosphatidylcholine
- explicit memory (serial learning task) [8]: improve explicit memory
